Measurements from ChEMBL document CHEMBL1697731, “Cheminformatics analysis of assertions mined from literature that describe drug-induced liver injury in different species” (Chem Res Toxicol, 2010).

Legend:
Hepatotoxicity [1] = assay: Literature-mined compound from Fourches et al multi-species drug-induced liver injury (DILI) dataset, effect in humans; conditions: human
Hepatotoxicity [2] = assay: Literature-mined compound from Fourches et al multi-species drug-induced liver injury (DILI) dataset, effect in rodents; conditions: rodentia
Hepatotoxicity [3] = assay: Literature-mined compound from Fourches et al multi-species drug-induced liver injury (DILI) dataset, effect in non-rodents

Compound	Hepatotoxicity (Hepatotoxicity [1])	Hepatotoxicity (Hepatotoxicity [2])	Hepatotoxicity (Hepatotoxicity [3])	Hepatotoxicity (Hepatotoxicity [1]; Liver)	Hepatotoxicity (Hepatotoxicity [2]; Liver)	Hepatotoxicity (Hepatotoxicity [3]; Liver)
CC[C@]12C=CCN3CC[C@@]4(c5cc([C@@]6(C(=O)OC)C[C@@H]7C[C@@H](C(C)(F)F)CN(Cc8c6[nH]c6ccccc86)C7)c(OC)cc5N(C)[C@H]4[C@@](O)(C(=O)OC)[C@@H]1OC(C)=O)[C@@H]32 [VINFLUNINE]	no drug-induced liver injury reported	drug-induced liver injury reported	no drug-induced liver injury reported			
CCC1=C[C@@H]2CN(C1)Cc1c([nH]c3ccccc13)[C@@](C(=O)OC)(c1cc3c(cc1OC)N(C)[C@H]1[C@@](O)(C(=O)OC)[C@H](OC(C)=O)[C@]4(CC)C=CCN5CC[C@]31[C@@H]54)C2 [VINORELBINE]	drug-induced liver injury reported	drug-induced liver injury reported	no drug-induced liver injury reported			
OCC(CO)N[C@H]1C[C@](O)(CO)[C@@H](O)[C@H](O)[C@H]1O [VOGLIBOSE]	drug-induced liver injury reported	drug-induced liver injury reported	no drug-induced liver injury reported			
C[C@@H](c1ncncc1F)[C@](O)(Cn1cncn1)c1ccc(F)cc1F [VORICONAZOLE]	drug-induced liver injury reported	no drug-induced liver injury reported	no drug-induced liver injury reported			
O=C(CCCCCCC(=O)Nc1ccccc1)NO [VORINOSTAT]	drug-induced liver injury reported	drug-induced liver injury reported	no drug-induced liver injury reported			
CC(=O)CC(c1ccccc1)c1c(O)c2ccccc2oc1=O (stereo unspecified) [WARFARIN]	drug-induced liver injury reported	drug-induced liver injury reported	no drug-induced liver injury reported			
CCOC(=O)CN[C@@H](C(=O)N1CC[C@H]1C(=O)NCc1ccc(/C(N)=N\O)cc1)C1CCCCC1 [XIMELAGATRAN]	drug-induced liver injury reported	no drug-induced liver injury reported	no drug-induced liver injury reported			
Cc1cccc(C)c1NC(=O)c1cc(S(N)(=O)=O)c(Cl)cc1O [XIPAMIDE]	no drug-induced liver injury reported	drug-induced liver injury reported	no drug-induced liver injury reported			
COC(=O)[C@@H]1[C@H]2C[C@H]3c4[nH]c5ccccc5c4CCN3C[C@@H]2CC[C@@H]1O [YOHIMBINE]	no drug-induced liver injury reported	drug-induced liver injury reported	no drug-induced liver injury reported			
COc1cc(C(=O)NS(=O)(=O)c2ccccc2C)ccc1Cc1cn(C)c2ccc(NC(=O)OC3CCCC3)cc12 [ZAFIRLUKAST]	drug-induced liver injury reported	no drug-induced liver injury reported	no drug-induced liver injury reported			
Nc1ccn([C@H]2CC[C@@H](CO)O2)c(=O)n1 [ZALCITABINE]				drug-induced liver injury reported	drug-induced liver injury reported	no drug-induced liver injury reported
Cc1cn([C@H]2C[C@H](N=[N+]=[N-])[C@@H](CO)O2)c(=O)[nH]c1=O [ZIDOVUDINE]	drug-induced liver injury reported	drug-induced liver injury reported	no drug-induced liver injury reported			
CC(c1cc2ccccc2s1)N(O)C(N)=O (stereo unspecified) [ZILEUTON]	drug-induced liver injury reported	drug-induced liver injury reported	no drug-induced liver injury reported			
CC(=O)[O][Zn][O]C(C)=O [ZINC ACETATE ANHYDROUS]				no drug-induced liver injury reported	drug-induced liver injury reported	no drug-induced liver injury reported
Cc1ccc(-c2nc3ccc(C)cn3c2CC(=O)N(C)C)cc1 [ZOLPIDEM]	drug-induced liver injury reported	no drug-induced liver injury reported	no drug-induced liver injury reported			
BLEOMYCIN	drug-induced liver injury reported	drug-induced liver injury reported	no drug-induced liver injury reported			
CARBOPLATIN	drug-induced liver injury reported	drug-induced liver injury reported	no drug-induced liver injury reported			
CHOLESTYRAMINE	drug-induced liver injury reported	drug-induced liver injury reported	no drug-induced liver injury reported			
DALTEPARIN SODIUM	no drug-induced liver injury reported	drug-induced liver injury reported	no drug-induced liver injury reported			
GADOBENATE DIMEGLUMINE	drug-induced liver injury reported	no drug-induced liver injury reported	no drug-induced liver injury reported			
GENTAMICIN	no drug-induced liver injury reported	drug-induced liver injury reported	no drug-induced liver injury reported			

Compound	Hepatotoxicity (Hepatotoxicity [1])	Hepatotoxicity (Hepatotoxicity [2])	Hepatotoxicity (Hepatotoxicity [3])	Hepatotoxicity (Hepatotoxicity [1]; Liver)	Hepatotoxicity (Hepatotoxicity [2]; Liver)	Hepatotoxicity (Hepatotoxicity [3]; Liver)
GLATIRAMER ACETATE	drug-induced liver injury reported	drug-induced liver injury reported	no drug-induced liver injury reported			
GOLD SODIUM THIOMALATE	drug-induced liver injury reported	drug-induced liver injury reported	no drug-induced liver injury reported			
HEPARIN	drug-induced liver injury reported	drug-induced liver injury reported	drug-induced liver injury reported			
HYALURONIC ACID	drug-induced liver injury reported	drug-induced liver injury reported	no drug-induced liver injury reported			
IRON(II) CITRATE	no drug-induced liver injury reported	drug-induced liver injury reported	no drug-induced liver injury reported			
IVERMECTIN	drug-induced liver injury reported	no drug-induced liver injury reported	no drug-induced liver injury reported			
LACTOSE, ANHYDROUS	no drug-induced liver injury reported	drug-induced liver injury reported	no drug-induced liver injury reported			
LECITHIN	drug-induced liver injury reported	drug-induced liver injury reported	no drug-induced liver injury reported			
MANGAFODIPIR TRISODIUM	drug-induced liver injury reported	no drug-induced liver injury reported	no drug-induced liver injury reported			
METHYLCOBALAMIN	no drug-induced liver injury reported	drug-induced liver injury reported	no drug-induced liver injury reported			
OXALIPLATIN	drug-induced liver injury reported	no drug-induced liver injury reported	no drug-induced liver injury reported			
POLYETHYLENE GLYCOL	drug-induced liver injury reported	drug-induced liver injury reported	no drug-induced liver injury reported			
POLYMYXIN B	drug-induced liver injury reported	drug-induced liver injury reported	no drug-induced liver injury reported			
POLYVINYL ALCOHOL	no drug-induced liver injury reported	no drug-induced liver injury reported	drug-induced liver injury reported			
PORFIMER SODIUM	no drug-induced liver injury reported	drug-induced liver injury reported	no drug-induced liver injury reported			
SILYMARIN	drug-induced liver injury reported	drug-induced liver injury reported	no drug-induced liver injury reported			
SPIRAMYCIN	drug-induced liver injury reported	no drug-induced liver injury reported	no drug-induced liver injury reported			
TYLOXAPOL	no drug-induced liver injury reported	drug-induced liver injury reported	no drug-induced liver injury reported			
VITAMIN B12	drug-induced liver injury reported	no drug-induced liver injury reported	no drug-induced liver injury reported			
VITAMIN E	drug-induced liver injury reported	drug-induced liver injury reported	drug-induced liver injury reported			
VITAMIN K	drug-induced liver injury reported	drug-induced liver injury reported	no drug-induced liver injury reported			
